Measured values from article PMC6047675, “Neutral metalloaminopeptidases APN and MetAP2 as newly discovered anticancer molecular targets of actinomycin D and its simple analogs” (Oncotarget, 2018).
Read-outs that look alike come from different tables or passages of the source. Starred links: 1 amine or outer side, 2 acyl side, 3 side chain; linkers in the order of their positions; H or OH if unused. Positions of bridges follow the written chain, without caps; N, C: chain ends. Non-standard residues stand in square brackets, D forms with d. Residues, ends and D or L forms follow the SMILES beside them. Chains are numbered I, II in the order given. Actinocin(1to9) = Cc1c2oc3c(C)ccc(C(=O)[*:2])c3nc-2c(C(=O)[*:1])c(N)c1=O; Actinocin(9to1) = Cc1c2oc3c(C)ccc(C(=O)[*:1])c3nc-2c(C(=O)[*:2])c(N)c1=O; Pro(4-oxo) = O=C1CN[C@H](C(=O)O)C1; NMeV = CN[C@H](C(=O)O)C(C)C; Sar = CNCC(=O)O

How the values were obtained:
[1] = system: human leukemia cell line HL-60; details: read-out: LC50 (lethal concentration for a half of population), cytotoxicity HL-60; cited from earlier work
[2] = molecular target: T1, human alanine aminopeptidase (HsAPN) (Homo sapiens, UniProt P15144); assay: Inhibition of recombinant human APN, fluorogenic substrate Ala-AMC; assay type: biochemical; details: for mechanism of inhibition of HsAPN: from Lineweaver-Burk and Dixon plots
T1 construct: purchased R&D Systems
T1 sequence (P15144 whole entry): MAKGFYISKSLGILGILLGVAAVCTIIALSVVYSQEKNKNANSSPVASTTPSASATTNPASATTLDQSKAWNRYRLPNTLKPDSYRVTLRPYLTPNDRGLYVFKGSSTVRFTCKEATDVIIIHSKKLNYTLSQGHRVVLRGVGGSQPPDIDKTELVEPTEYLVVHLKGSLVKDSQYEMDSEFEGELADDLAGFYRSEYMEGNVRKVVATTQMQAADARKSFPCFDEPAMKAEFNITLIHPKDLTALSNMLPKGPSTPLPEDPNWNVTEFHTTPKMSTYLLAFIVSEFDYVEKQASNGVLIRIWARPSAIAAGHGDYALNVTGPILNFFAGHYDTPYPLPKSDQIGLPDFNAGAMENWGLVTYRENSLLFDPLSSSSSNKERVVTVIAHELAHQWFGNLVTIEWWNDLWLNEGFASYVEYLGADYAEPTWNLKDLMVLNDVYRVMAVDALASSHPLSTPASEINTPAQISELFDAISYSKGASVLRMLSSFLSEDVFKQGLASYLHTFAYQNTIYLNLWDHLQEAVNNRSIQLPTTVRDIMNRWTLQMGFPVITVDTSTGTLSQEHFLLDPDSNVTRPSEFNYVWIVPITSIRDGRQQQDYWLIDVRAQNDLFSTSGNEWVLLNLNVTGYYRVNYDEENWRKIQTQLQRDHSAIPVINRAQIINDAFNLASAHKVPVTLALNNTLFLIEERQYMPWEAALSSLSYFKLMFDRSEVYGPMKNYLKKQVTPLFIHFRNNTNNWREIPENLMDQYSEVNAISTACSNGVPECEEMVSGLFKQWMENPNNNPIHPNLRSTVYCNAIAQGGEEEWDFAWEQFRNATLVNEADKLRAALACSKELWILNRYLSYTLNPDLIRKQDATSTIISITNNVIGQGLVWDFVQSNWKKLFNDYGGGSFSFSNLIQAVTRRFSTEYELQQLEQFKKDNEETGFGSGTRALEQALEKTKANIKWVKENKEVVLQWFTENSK
From the text: (§1) Actinomycin D was purchased as a lyophilized powder from Sigma-Aldrich (Poznan, Poland), Actinomycin X2 was purchased form Adipogen (Liestal, Switzerland). Actinocine and Questiomycin A were synthesized according to a previously described procedure. Recombinant human APN and MetAP2 were purchased as a lyophilized powder from R&D Systems (Minneapolis, USA). Fluorogenic substrates Ala-AMC (L-alanine-4-methylcoumaryl-7-amide) and Met-AMC (L-methionine-4-methylcoumaryl-7-amide) were purchased from PeptaNova (Sandhausen, Germany). Spectrofluorometry was performed on a Spectra MAX Gemini EM fluorimeter (Molecular Devices, Sunnyvale, USA) in a 96-well plate format (Excitation = 355 nm, Emission = 460 nm). Calculations of the kinetic parameters were performed using the SoftMax Pro, GraphPad Prism and Microsoft Excel programs.
(§2) Recombinant human APN enzyme was dissolved in 50 mM Tris-HCl buffer (pH = 7.0) and used directly in the kinetic experiments. Recombinant human MetAP2 was obtained as a lyophilized powder from R&D Systems. The enzyme was dissolved in 100 mM Tris-maleate buffer containing 0.1 mM CoCl2, 100 mM NaCl and 0.075 % v/v albumin at pH = 7.5 and incubated for 30 minutes. After this activation, the enzyme was used directly in the kinetic experiments.
(§3) The inhibitors were screened against human APN and human MetAP2 at 37°C in the assay buffer as described above. For the steady-state measurements, the enzymes were preincubated for 30-60 min at 37°C with an inhibitor before adding the substrate (Ala-AMC, 40 μM for human APN or Met-AMC and 50 μM for MetAP2) to the wells. For the initial state measurements, the enzymes were preincubated for 15-30 min at 37°C before adding the substrate and inhibitor to the wells. The following conditions were used: (1) total volume 100 μL, (2) eight different inhibitor concentrations, and (3) enzyme concentration of 0.3 nM for human APN and 1 nM for MetAP2. The release of the AMC fluorophore was monitored. The linear portion of the progress curve was used to calculate the velocity. hPhePCH2Phe for APN and ebselen for MetAP2 were used as a positive control. The inhibition mechanism was determined from the Lineweaver-Burk and Dixon plot (Figure 2B and 2D). The IC50 values were calculated from the reaction velocity to inhibitor concentration plot fitted to the equation log[I] vs. response. The Ki values were equal to the IC50 for non-competitive inhibitors and were calculated for competitive inhibitors using the following equation: Ki = (IC50-[E]/2)/ (1 + ([S]/Km)), where the IC50 is the concentration of the inhibitor that effected 50% inhibition, [S] and Km are the substrate concentration and Michaelis constant in the absence of inhibitor, respectively, and [E] is the concentration of the enzyme.

[3] = molecular target: T2, human methionine aminopeptidase type 2 (HsMetAP2) (Homo sapiens, UniProt P50579); assay: Inhibition of recombinant human MetAP2, fluorogenic substrate Met-AMC; assay type: biochemical; details: for mechanism of inhibition of HsMetAP2: from Lineweaver-Burk and Dixon plots
T2 construct: purchased R&D Systems
T2 sequence (P50579 whole entry): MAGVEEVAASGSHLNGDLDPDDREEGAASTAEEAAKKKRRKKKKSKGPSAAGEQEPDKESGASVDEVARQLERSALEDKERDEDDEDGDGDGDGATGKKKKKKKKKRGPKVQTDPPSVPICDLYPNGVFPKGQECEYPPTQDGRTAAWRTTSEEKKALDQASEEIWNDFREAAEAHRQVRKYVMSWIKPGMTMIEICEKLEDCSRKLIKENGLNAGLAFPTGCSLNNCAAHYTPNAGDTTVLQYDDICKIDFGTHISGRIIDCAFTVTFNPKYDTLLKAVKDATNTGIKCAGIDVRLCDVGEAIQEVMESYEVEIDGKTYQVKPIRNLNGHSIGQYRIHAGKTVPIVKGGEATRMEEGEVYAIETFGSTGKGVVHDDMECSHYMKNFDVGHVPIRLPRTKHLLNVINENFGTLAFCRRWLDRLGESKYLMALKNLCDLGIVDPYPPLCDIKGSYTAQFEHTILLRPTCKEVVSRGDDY
From the text: as §1, §2, §3

[4] = system: human acute B- and T-lymphoblastic leukemia, cervix carcinoma and larynx carcinoma; set-up: method as in PMID 12431048; details: read-out: IC50 cytotoxicity; cited from earlier work
[5] = TRIS buffer, 37°C, average with standard deviation, at least three experiments, read-out: IC50 HsAPN
[6] = TRIS buffer, 37°C, calculated by Cheng-Prusoff equations for non-competitive and competitive inhibitors, average with standard deviation, at least three experiments, read-out: Ki HsAPN
[7] = TRIS buffer, 37°C, average with standard deviation, at least three experiments, read-out: IC50 HsMetAP
[8] = TRIS buffer, 37°C, calculated by Cheng-Prusoff equations for non-competitive and competitive inhibitors, average with standard deviation, at least three experiments, read-out: Ki HsMetAP
[9] = more effective than Actinomycin D/X2

Cc1c2oc3c(C)ccc(C(=O)N[C@@H]4C(=O)N[C@H](C(C)C)C(=O)N5CCC[C@H]5C(=O)N(C)CC(=O)N(C)[C@@H](C(C)C)C(=O)O[C@@H]4C)c3nc-2c(C(=O)N[C@@H]2C(=O)N[C@H](C(C)C)C(=O)N3CC(=O)C[C@H]3C(=O)N(C)CC(=O)N(C)[C@@H](C(C)C)C(=O)O[C@@H]2C)c(N)c1=O [Actinomycin X2, reference compound] (I: T[dV][Pro(4-oxo)][Sar][NMeV] / II: T[dV]P[Sar][NMeV]; ester I:1-I:C, II:1-II:C; linker I:N-II:N via Actinocin(1to9))
CC50 [1]: 8 nM
IC50 [2]: 12.2 ± 1.4 µM
Ki [2]: 12.2 ± 1.4 µM
mechanism of inhibition of HsAPN [2]: non-competitive
IC50 [3]: 8.33 ± 0.75 µM
Ki [3]: 8.33 ± 0.75 µM
mechanism of inhibition of HsMetAP2 [3]: non-competitive

Nc1cc2nc3ccccc3oc-2cc1=O [Questiomycin A]
IC50 [2, 5]: 63 ± 3.2 µM
Ki [2, 6]: 52.5 ± 2.7 µM
mechanism of inhibition of HsAPN [2]: competitive
times less effective, HsAPN ([2]; in contrast to Actinocin): 10 times
decrease in activity for HsAPN compared to the lead compound ([2]; lead compound = Actinomycin D): five-fold
IC50 [3, 7]: 34.9 ± 3.2 µM
Ki [3, 8]: 30.4 ± 3.2 µM
mechanism of inhibition of HsMetAP2 [3]: competitive
times less effective, HsMetAP2 ([3]; in contrast to Actinocin): 10 times
decrease in activity for HsMetAP2 compared to the lead compound ([3]; lead compound = Actinomycin D): five-fold
IC50 [4]: 1000 to 3000 nM

Cc1c2oc3c(C)ccc(C(=O)O)c3nc-2c(C(=O)O)c(N)c1=O [Actinocin]
IC50 [2, 5]: 7.25 ± 1.2 µM
Ki [2, 6]: 6.04 ± 0.51 µM
mechanism of inhibition of HsAPN [2]: competitive
effectiveness relative to Actinomycin D/X2, HsAPN [2, 9]: twice as effective
IC50 [3, 7]: 2.34 ± 0.62 µM
Ki [3, 8]: 2.04 ± 0.23 µM
mechanism of inhibition of HsMetAP2 [3]: competitive
effectiveness relative to Actinomycin D/X2, HsMetAP2 [3, 9]: four times as effective

Cc1c2oc3c(C)ccc(C(=O)N[C@@H]4C(=O)N[C@H](C(C)C)C(=O)N5CCC[C@H]5C(=O)N(C)CC(=O)N(C)[C@@H](C(C)C)C(=O)O[C@@H]4C)c3nc-2c(C(=O)N[C@@H]2C(=O)N[C@H](C(C)C)C(=O)N3CCC[C@H]3C(=O)N(C)CC(=O)N(C)[C@@H](C(C)C)C(=O)O[C@@H]2C)c(N)c1=O [Actinomycin D] (I: T[dV]P[Sar][NMeV] / II: T[dV]P[Sar][NMeV]; ester I:1-I:C, II:1-II:C; linker I:N-II:N via Actinocin(9to1))
IC50 [2]: 11.9 ± 1.1 µM
Ki [2]: 11.9 ± 1.1 µM
mechanism of inhibition of HsAPN [2]: non-competitive
IC50 [3]: 7.37 ± 0.56 µM
Ki [3]: 7.37 ± 0.56 µM
mechanism of inhibition of HsMetAP2 [3]: non-competitive
IC50 [4]: 1 to 8 nM
